Columns and labels:
[1] = test system: 17-PTP-induced bladder contraction; assay: Suppressing effect on 17-phenyl trinor prostaglandin E2 (17-PTP)-induced bladder contraction; format: in vivo, Wistar-type male rat; conditions: urethane-anesthetized spinal cord-cut rat; test compound 1 mg/kg i.v. 5 minutes before 17-PTP i.a.; most decreased value until 95 minutes, relative to average before test compound administration
Procedure: (1) Preparation of Experimental Animal
A 10 w/v % urethane solution was subcutaneously administered (s. c.) at a dose of 1.5 g/kg to a Wistar-type male rat to thereby induce anesthesia. Approximately 40 minutes after the urethane administration, the rat was confirmed to be fully anesthetized, hair in the back, the thighs on both sides, the abdomen, and the neck was shaved, and fixation in a face-down position was performed. After midline incision of the dorsal skin, thoracodorsal muscles on both sides were incised along the spine, and the muscular layer was opened with a retractor to expose the thoracic spine. While the ninth thoracic vertebra was pulled cranially, a small hole was made with bone forceps, and from it, the spinal cord was cut using a soldering iron. At this time, in the case where bleeding was heavy, a gelatin sponge for hemostasis was put into the cut portion. The thoracodorsal incision layer was closed using a surgical adhesive, and then, the rat was fixed in a face-up position. […]
The rat was placed in a face-up position on a heating pad for small animals, and a rectal temperature probe was inserted from the anus to keep the body temperature at 37.5° C. The body temperature was confirmed to become 37.5° C., then 0.1 mL of a physiological saline solution was injected into the bladder, and intravesical pressure was measured. […]

rat EP1 receptor = target: T1, rat EP1 receptor (Rattus norvegicus, UniProt P70597); assay: Test for confirming EP1 receptor antagonistic effect: suppression of prostaglandin E2-induced rise in intracellular calcium concentration; format: cell-based; conditions: rat EP1 receptor-expressing COS-1 cells; prostaglandin E2 10 nM; Fluo 4-AM fluorescent signal; test compound 0.1 nM to 10 μM
T1 construct: expressed in transfected cells
T1 sequence (P70597 1-405): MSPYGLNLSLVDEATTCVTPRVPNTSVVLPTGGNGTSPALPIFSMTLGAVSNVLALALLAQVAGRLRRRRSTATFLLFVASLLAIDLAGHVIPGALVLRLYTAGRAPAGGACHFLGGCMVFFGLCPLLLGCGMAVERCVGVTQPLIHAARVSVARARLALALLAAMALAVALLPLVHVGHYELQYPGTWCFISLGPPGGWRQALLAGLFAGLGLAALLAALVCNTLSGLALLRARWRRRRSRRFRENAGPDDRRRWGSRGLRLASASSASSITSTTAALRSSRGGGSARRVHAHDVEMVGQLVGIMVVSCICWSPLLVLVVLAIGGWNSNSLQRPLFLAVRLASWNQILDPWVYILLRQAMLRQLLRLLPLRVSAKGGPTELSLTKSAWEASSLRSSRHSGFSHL
Procedure: (1) Preparation of Rat EP1 Expression Vector
The first PCR was performed with Rat Kidney BD Marathon-Ready cDNA (Nippon Becton Dickinson Co., Ltd.) as a template using a forward primer represented by SEQ ID NO: 1 and a reverse primer represented by SEQ ID NO: 2 and using KOD-Plus-Ver 2.0 (Toyobo Co., Ltd.). The second PCR was further performed in a similar manner with this amplification product as a template using a forward primer represented by SEQ ID NO: 3 and a reverse primer represented by SEQ ID NO: 4. The amplification product obtained by the second PCR was incorporated into a vector (pcDNA3.1 D/V5-His-TOPO (registered trademark), Invitrogen Corporation). This vector with the incorporated amplification product was introduced to E. coli (One Shot TOP10 Competent Cell, Invitrogen Corporation) by a conventional method to perform transformation. This transformed E. coli was cultured for 1 day in an LB agar medium. After the culture, colonies were selected and cultured in an LB liquid medium containing 50 μg/mL of ampicillin. After the culture, the vector was purified using QIAprep Spin Miniprep Kit (Qiagen Corporation). The base sequence (SEQ ID NO: 5) of the inserted site in this vector was compared with the base sequence (Ptger1) of rat EP1 registered under Accession No. NM_013100 in a heretofore known database (NCBI) and consequently was completely identical except for 1 base. Moreover, an amino acid sequence translated from this base sequence was completely identical to the amino acid sequence of the rat EP1 receptor registered under Accession No. NP_037232 in NCBI. Thus, it was confirmed that the cloned gene sequence was the base sequence of the rat EP1 receptor and the obtained amino acid sequence was the rat EP1 receptor. The pcDNA3.1 D/V5-His-TOPO (registered trademark) in which the nucleic acid represented by SEQ ID NO: 5 was inserted was used as a rat EP1 expression vector.
(2) Preparation of Rat EP1 Receptor-Expressing Cell
COS-1 cells (Dainippon Sumitomo Pharma Co., Ltd.) were cultured at 37° C. in an incubator under 5% CO2 gas conditions using a D-MEM liquid medium (containing high glucose and L-glutamine, Invitrogen Corporation) supplemented with a penicillin-streptomycin solution (Invitrogen Corporation, final concentration: 100 U/mL as benzylpenicillin; 100 μg/mL as streptomycin) as antibiotics, MEM non-essential amino acids (Invitrogen Corporation, final concentration: 0.1 mM), and fetal bovine serum (Moregate Biotech, final concentration: 10%), until reaching confluence.
The cells that reached confluence were dissociated with 0.05% trypsin/0.53 mM EDTA.4Na (Invitrogen Corporation) and resuspended in the liquid medium. The resuspended cells were diluted with the liquid medium so that the spread ratio became 1:4 to 1:8, and were cultured.
The cells that reached confluence were dissociated with 0.05% trypsin/0.53 mM EDTA.4Na and resuspended in a D-MEM liquid medium (containing high glucose and L-glutamine, Invitrogen Corporation) supplemented with MEM non-essential amino acids (final concentration: 0.1 mM) and fetal bovine serum (final concentration: 10%). This resuspended cell suspension was prepared with a liquid medium so as to become the number of cells 5×10^4 cells/100 μL of the liquid medium/well in each well of a poly-D-lysine-coated 96-well microplate (BD BioCoat (registered trademark), Nippon Becton Dickinson Co., Ltd.), and this cell preparation was dispensed at 100 μL to each well and seeded. After the seeding, the cells were cultured at 37° C. in an incubator under 5% CO2 gas conditions. The introduction of the rat EP1 expression vector was performed by procedures shown below at the point in time when the cells for introduction of this rat EP1 expression vector adhered (approximately 2 hours after the seeding).
Lipofectamine 2000 (Invitrogen Corporation) was used for the introduction of the rat EP1 expression vector. […]

SMILES: O=C(O)c1cccc(Cc2c(-c3ccccc3)nn3cc(Cl)ccc23)n1 [Example 3-3, 6-[(6-Chloro-2-phenylpyrazolo[1,5-a]pyridin-3-yl)methyl]pyridine-2-carboxylic acid]
- Amount of change in intravesical pressure [1]: 53%
- IC50 (rat EP1 receptor): 8 nM
